The source of these data is ChEMBL document CHEMBL1136401 (Bioorg Med Chem Lett, 2003).

Test [1] has as its system MT4. The test can be described thus: Inhibition of the spread of HIV infection (K-60C) in MT-4 human T-lymphoid cells. It counts as functional. As to conditions: read-out: CIC95.
For test [2], the system named is MT4. Put plainly: Inhibition of the spread of HIV infection wild type(WT) in MT-4 human T-lymphoid cells. As to conditions: read-out: CIC95. It is filed as functional.
Test [3] relates to MT4. The test can be described thus: Inhibition of the spread of HIV infection (V-18C) in MT-4 human T-lymphoid cells. The note with it: read-out: CIC95. It is filed as functional.
Test [4] has as its target T1, Human immunodeficiency virus type 1 protease (Human immunodeficiency virus 1, UniProt Q72874). Put plainly: Inhibition of HIV protease of HIV K-60C mutant strain.
For test [5], the target named is T1, Human immunodeficiency virus type 1 protease. Put plainly: Inhibition of wild type HIV protease.
The target is the same in test [6]. Put plainly: Inhibition of HIV protease of HIV V-18C mutant strain.

The structures appear in SMILES notation.

Consider `Cc1ccccc1CNC(=O)[C@H]1N(C(=O)[C@@H](O)C[C@@H](Cc2ccccc2)C(=O)N[C@H]2c3ccccc3OC[C@H]2O)CSC1(C)C`, for which the IC95 in the test on MT4 [1] worked out at 125 nM; in the test on MT4 [2] it was 19 nM; in the test on MT4 [3], 41 nM.
For `Cc1ccnc(C)c1CNC(=O)[C@H]1N(C(=O)[C@@H](O)C[C@@H](Cc2ccccc2)C(=O)N[C@H]2c3ccccc3OC[C@H]2O)CSC1(C)C` the same measures were 250 nM, 187 nM and 125 nM.
For `Cc1nsc(C)c1CNC(=O)[C@H]1N(C(=O)[C@@H](O)C[C@@H](Cc2ccccc2)C(=O)N[C@H]2c3ccccc3OC[C@H]2O)CSC1(C)C` the same measures were 250 nM, 16 nM and 31 nM.
With `Cc1cccc(Cl)c1CNC(=O)[C@H]1N(C(=O)[C@@H](O)C[C@@H](Cc2ccccc2)C(=O)N[C@H]2c3ccccc3OC[C@H]2O)CSC1(C)C`, the IC95 was determined as 46 nM in the test on MT4 [1], 31 nM with MT4 [2] and 23 nM with MT4 [3].
On the same counts, the results for `Cc1cccc(C)c1CNC(=O)[C@H]1N(C(=O)[C@@H](O)C[C@@H](Cc2ccccc2)C(=O)N[C@H]2c3ccccc3OC[C@H]2O)CSC1(C)C` are 500 nM, 47 nM and 62 nM.
As to `Cc1ccccc1CNC(=O)[C@H]1N(C[C@@H](O)C[C@@H](Cc2ccccc2)C(=O)N[C@H]2c3ccccc3OC[C@H]2O)CSC1(C)C`, the IC95 in the test with MT4 [1] is greater than 1000 nM; with MT4 [2], 250 nM; in the test with MT4 [3], 1000 nM. For the same compound, the figures for the IC50 in test [4], in test [5] and in test [6] were 7.9 nM, 0.52 nM and 8.8 nM, respectively.
Consider `CC1(C)SCN(C(=O)[C@@H](O)C[C@@H](Cc2ccccc2)C(=O)N[C@H]2c3ccccc3OC[C@H]2O)[C@@H]1C(=O)NCc1c(Cl)cccc1Cl`, for which the IC95 in the test with MT4 [1] is 250 nM; in the test on MT4 [2] it was less than 8 nM; with MT4 [3], 16 nM.
As for `Cc1cccc(C)c1CNC(=O)[C@H]1N(C(=O)[C@@H](O)C[C@@H](Cc2ccccc2)C(=O)N[C@H]2c3ccccc3C[C@H]2O)CSC1(C)C`, the IC95 came to 125 nM in the test on MT4 [1], 31 nM in the test on MT4 [2] and 31 nM with MT4 [3]. The results for the IC50 in test [4], in test [5] and in test [6] were 0.062 nM, 0.04 nM and 0.062 nM, respectively.
On to `Cc1noc(C)c1CNC(=O)[C@H]1N(C(=O)[C@@H](O)C[C@@H](Cc2ccccc2)C(=O)N[C@H]2c3ccccc3OC[C@H]2O)CSC1(C)C`, for which the IC95 in the test with MT4 [1] was 250 nM; in the test with MT4 [2], 156 nM; in the test with MT4 [3], 62 nM.
On the same counts, the results for `CC1(C)SCN(C(=O)[C@@H](O)C[C@@H](Cc2ccccc2)C(=O)N[C@H]2c3ccccc3OC[C@H]2O)[C@@H]1C(=O)NCc1c(F)cccc1F` are 250 nM, 23 nM and 62 nM.
Regarding `Cc1cccc(C)c1CNC(=O)[C@H]1N(C(=O)[C@H](O)C[C@@H](Cc2ccccc2)C(=O)N[C@H]2c3ccccc3OC[C@H]2O)CSC1(C)C`, the IC95 stood at 70 nM in the test on MT4 [1], 15 nM with MT4 [2] and 15 nM with MT4 [3].
Regarding `CC(C)(C)NC(=O)[C@@H]1CN(Cc2cccnc2)CCN1C[C@@H](O)C[C@@H](Cc1ccccc1)C(=O)N[C@H]1c2ccccc2C[C@H]1O`, the IC95 with MT4 [1] was found to be 1000 nM; in the test on MT4 [2], 45 nM; with MT4 [3] it was 890 nM.
